Publication PMC11061149, “Protein mimetic 2D FAST rescues alpha synuclein aggregation mediated early and post disease Parkinson’s phenotypes” (Nature Communications, 2024)

Columns and labels:
[1] = test system: HEK293 cells stably expressing αS-A53T-YFP; test: ProteoStat dye assay, ligand pre-treatment, αS fibers templated intracellular aggregation; format: cell-based, human; conditions: ligand 10 µM for 16 h, washed, then 5 µM αS fibers for 24 h
Experimental: We further tested NS163 against intracellular αS aggregation using same HEK293 cells (express αS-A53T-YFP)[23],[24],[50]. In this assay, we added NS163 (10 µM) to the HEK cells and incubated the cells for 16 h, washed the cells and treated with the preformed fibers of αS (5 µM monomer) and incubated for an additional 24 h. The ProteoStat dye-based intensity of HEK cells treated with αS fibers was ~4 fold higher than the control (no fibers) (Supplementary Fig. 19). NS163 was a very potent antagonist as it was able to reduce the intracellular inclusions by 80% at 10 µM, measured using the ProteoStat dye-based assay (Supplementary Fig. 19). Under matched conditions, 10 µM NS132 was able to reduce the intracellular inclusions by 57% (Supplementary Fig. 19). The higher antagonist activity of NS163 than NS132 is likely due to the better cell permeability of the former. […] It is important to point out that our potent ligands (NS163 and NS132) were able to inhibit αS preformed fibers templated aggregation of both monomeric WT αS and A53T αS mutant. It has been shown that the WT αS fibers templated aggregation of WT αS and its mutants is predominantly dependent on the interaction of the fibers with the N-terminus of the monomeric WT αS and its mutants[62],[68],[69]. […]

[2] = target: T1, 15N-labeled αS monomer (Homo sapiens, UniProt P37840); test: 2D 1H-15N HSQC NMR of 15N-labeled αS with ligand; format: binding; conditions: 70 µM 15N-αS + equimolar ligand, V/V0
T1 construct: purchased rpeptide, Bogart, GA
Experimental: A solution of ^15N αS was prepared by resuspending 1 mg of uniformly labeled ^15N αS (rpeptide, Bogart, GA) in 1 mL Milli-Q water to yield a 70 μM αS solution in 20 mM Tris-HCl pH 7.4, 100 mM NaCl. The protein was buffer exchanged to Milli-Q water, lyophilized, and stored at –80 °C. For the preparation of NMR experiments, the lyophilized ^15N αS powder was dissolved in the NMR buffer (300 μL, 20 mM NaPO4 pH 6.4, 5% D2O, v/v) to make a final concentration of 70 μM. The protein concentration was confirmed with a NanoDrop One (Thermo Scientific, Waltham, MA) at 280 nm using an extinction coefficient of 5960 M^-1cm^-1. The solutions were transferred into Shigemi BMS-005 NMR tube (Shigemi, Tokyo, Japan) and the two-dimensional ^1H-^15N HSQC NMR experiments were performed on a 600 MHz Bruker Avance Neo (CU Anschutz, NMR core facility, CO) instrument equipped with a triple resonance HCN cryoprobe. Data was collected at 12 °C on Topspin 4.9.0 software (Bruker, Billerica, MA). The HSQC spectra were recorded using a data matrix consisting of 1024 (t2, ^1H) × 160 (t1, ^15N) complex points. Resonance assignments were determined utilizing a previous publication[83] and the data analysis was performed using MestReNova software.
For the HSQC experiments titrating NS132 into ^15N αS, the same experimental conditions were used as above. Incrementally, NS132 was added to a single ^15N αS solution, mixed, kept at r.t. for 10 min and HSQC was recorded under the conditions stated above. For HSQC experiments containing pre-formed fibrils (PFF) of αS, 5.4 eq. of PFF solution (500 μM) was added to monomeric ^15N αS solution, and the spectra was recorded as previously stated.

[3] = target: T2, αS fibers-catalyzed aggregation of αS (Homo sapiens, UniProt P37840); test: αS fibers-catalyzed aggregation of αS, ThT kinetic assay; format: biochemical
T2 construct: made in house; host or cells: E. coli BL21(DE3)

## Cc1ccc(NC(=O)c2ccc(NC(=O)c3ccc([N+](=O)[O-])c(NCCc4c[nH]c5ccccc45)n3)c(NCC3CCCCC3)n2)c(OCC(=O)O)n1 [NS132]
[1]
  reduction of intracellular inclusions (ProteoStat): 57%
[2]
  Change in volume of peaks, αS residue A11: 0.12
  Change in volume of peaks, αS residue A17: 0.33
  Change in volume of peaks, αS residue A18: 0.55
  Change in volume of peaks, αS residue A19: 0.15
  Change in volume of peaks, αS residue A56: 0.13
  Change in volume of peaks, αS residue A78: 0.03
  Change in volume of peaks, αS residue A89: 0.12
  Change in volume of peaks, αS residue A90: 0.08
  Change in volume of peaks, αS residue A107: 0.04
  Change in volume of peaks, αS residue E13: 0.05
  Change in volume of peaks, αS residue E20: 0.17
  Change in volume of peaks, αS residue E46: 0.14
  Change in volume of peaks, αS residue G14: 0.1
  Change in volume of peaks, αS residue G31: 0.08
  Change in volume of peaks, αS residue G36: 0.1
  Change in volume of peaks, αS residue G41: 0.31
  Change in volume of peaks, αS residue G68: 0.06
  Change in volume of peaks, αS residue G93: 0.04
  Change in volume of peaks, αS residue H50: 0.52
  Change in volume of peaks, αS residue K10: 0.12
  Change in volume of peaks, αS residue K12: 0.77
  Change in volume of peaks, αS residue K43: 0.42
  Change in volume of peaks, αS residue L38: 0.05
  Change in volume of peaks, αS residue L100: 0.09
  Change in volume of peaks, αS residue S42: 0.46
  Change in volume of peaks, αS residue S129: 0.14
  Change in volume of peaks, αS residue T22: 0.03
  Change in volume of peaks, αS residue T59: 0.26
  Change in volume of peaks, αS residue T64: 0.08
  Change in volume of peaks, αS residue T75: 0.22
  Change in volume of peaks, αS residue V3: 0.04
  Change in volume of peaks, αS residue V15: 0.61
  Change in volume of peaks, αS residue V16: 0.09
  Change in volume of peaks, αS residue V37: 0.08
  Change in volume of peaks, αS residue V40: 0.13
  Change in volume of peaks, αS residue V66: 0.04
  Change in volume of peaks, αS residue V77: 0.16
  Change in volume of peaks, αS residue V82: 0.09
  Change in volume of peaks, αS residue Y39: 0.21
[3]; 100 µM αS + αS fibers (20% monomer conc.) + equimolar ligand, time 0 hr
  ThT fluorescence intensity, Average: 181.667
[3]; 100 μM αS, preformed αS fibers 20%, equimolar ligand
  effect on αS fibers-catalyzed aggregation of αS, in words: wholly suppressed
[3]; seeded, equimolar ligand, time 3 hr
  ThT fluorescence intensity, Average: 168
[3]; seeded, equimolar ligand, time 6 hr
  ThT fluorescence intensity, Average: 160.333
[3]; seeded, equimolar ligand, time 9 hr
  ThT fluorescence intensity, Average: 164
[3]; seeded, equimolar ligand, time 12 hr
  ThT fluorescence intensity, Average: 200.667
[3]; seeded, equimolar ligand, time 24 hr
  ThT fluorescence intensity, Average: 255
[3]; seeded, equimolar ligand, time 36 hr
  ThT fluorescence intensity, Average: 243.333
[3]; seeded, equimolar ligand, time 48 hr
  ThT fluorescence intensity, Average: 299.333
